Results from PubChem BioAssay AID1259407 (Chemical Carcinogenesis Research Information System (CCRIS), 2018).
Active and inactive are the calls of the source. No rule for the calls is given here.

Tested on: CCRIS mutagenicity, Ames/micronucleus/aberration tests
Experiment: CCRIS mutagenicity studies
[1] = Test System: AMES SALMONELLA TYPHIMURIUM, Strain/Indicator: TA97, Metabolic Activation: HAMSTER, LIVER, S-9, AROCLOR 1254 (10 OR 30%), Method: PREINCUBATION
[2] = Test System: AMES SALMONELLA TYPHIMURIUM, Strain/Indicator: TA97, Metabolic Activation: NONE, Method: PREINCUBATION
[3] = Test System: AMES SALMONELLA TYPHIMURIUM, Strain/Indicator: TA97, Metabolic Activation: RAT, LIVER, S-9, AROCLOR 1254 (10 OR 30%), Method: PREINCUBATION
[4] = Test System: AMES SALMONELLA TYPHIMURIUM, Strain/Indicator: TA98, Metabolic Activation: HAMSTER, LIVER, S-9, AROCLOR 1254 (10 OR 30%), Method: PREINCUBATION
[5] = Test System: AMES SALMONELLA TYPHIMURIUM, Strain/Indicator: TA98, Metabolic Activation: NONE, Method: PREINCUBATION
[6] = Test System: AMES SALMONELLA TYPHIMURIUM, Strain/Indicator: TA98, Metabolic Activation: RAT, LIVER, S-9, AROCLOR 1254 (10 OR 30%), Method: PREINCUBATION
[7] = Test System: AMES SALMONELLA TYPHIMURIUM, Strain/Indicator: TA100, Metabolic Activation: HAMSTER, LIVER, S-9, AROCLOR 1254 (10 OR 30%), Method: PREINCUBATION
[8] = Test System: AMES SALMONELLA TYPHIMURIUM, Strain/Indicator: TA100, Metabolic Activation: NONE, Method: PREINCUBATION
[9] = Test System: AMES SALMONELLA TYPHIMURIUM, Strain/Indicator: TA100, Metabolic Activation: RAT, LIVER, S-9, AROCLOR 1254 (10 OR 30%), Method: PREINCUBATION
[10] = Test System: AMES SALMONELLA TYPHIMURIUM, Strain/Indicator: TA1535, Metabolic Activation: HAMSTER, LIVER, S-9, AROCLOR 1254 (10 OR 30%), Method: PREINCUBATION
[11] = Test System: AMES SALMONELLA TYPHIMURIUM, Strain/Indicator: TA1535, Metabolic Activation: NONE, Method: PREINCUBATION
[12] = Test System: AMES SALMONELLA TYPHIMURIUM, Strain/Indicator: TA1535, Metabolic Activation: RAT, LIVER, S-9, AROCLOR 1254 (10 OR 30%), Method: PREINCUBATION
[13] = Test System: AMES SALMONELLA TYPHIMURIUM, Strain/Indicator: TA100, Metabolic Activation: NONE, Method: STANDARD PLATE
[14] = Test System: AMES SALMONELLA TYPHIMURIUM, Strain/Indicator: TA98, Metabolic Activation: NONE, Method: STANDARD PLATE
[15] = Test System: AMES SALMONELLA TYPHIMURIUM, Strain/Indicator: TA98, Metabolic Activation: RAT, LIVER, S-9, AROCLOR 1254, Method: STANDARD PLATE

SMILES: C[C@@H]1[C@H](O)[C@@H](C)/C=C/C=C/C=C/C=C/C=C/C=C/C=C/[C@H](O[C@@H]2O[C@H](C)[C@@H](O)[C@H](N)[C@@H]2O)C[C@@H]2O[C@](O)(C[C@@H](O)C[C@@H](O)[C@H](O)CC[C@@H](O)C[C@@H](O)CC(=O)O[C@H]1C)C[C@H](O)[C@H]2C(=O)O
- mutagenic call (End Point: IN VITRO CHROMOSOMAL ABERRATIONS, Test System: CHO-LB CELLS, Metabolic Activation: NONE): inactive; negative
- mutagenic call (End Point: IN VITRO CHROMOSOMAL ABERRATIONS, Test System: CHO-LB CELLS, Metabolic Activation: RAT, LIVER, S-9, AROCLOR 1254): inactive; negative
- mutagenic call [1]: inactive; negative
- mutagenic call [2]: inactive; negative
- mutagenic call [3]: inactive; negative
- mutagenic call [4]: inactive; negative
- mutagenic call [5]: inactive; negative
- mutagenic call [6]: inactive; negative
- mutagenic call [7]: inactive; negative
- mutagenic call [8]: inactive; negative
- mutagenic call [9]: inactive; negative
- mutagenic call [10]: inactive; negative
- mutagenic call [11]: inactive; negative
- mutagenic call [12]: inactive; negative
- mutagenic call (Test System: AMES SALMONELLA TYPHIMURIUM, Strain/Indicator: TA1537, Metabolic Activation: HAMSTER, LIVER, S-9, AROCLOR 1254 (30%), Method: PREINCUBATION): inactive; negative
- mutagenic call (Test System: AMES SALMONELLA TYPHIMURIUM, Strain/Indicator: TA1537, Metabolic Activation: NONE, Method: PREINCUBATION): inactive; negative
- mutagenic call (Test System: AMES SALMONELLA TYPHIMURIUM, Strain/Indicator: TA1537, Metabolic Activation: RAT, LIVER, S-9, AROCLOR 1254 (30%), Method: PREINCUBATION): inactive; negative

SMILES: Clc1ccc(CCC2CO2)cc1 (stereo not drawn)
- mutagenic call [8]: inactive; negative
- mutagenic call [13]: active; positive
- mutagenic call [11]: inactive; negative
- mutagenic call (Test System: AMES SALMONELLA TYPHIMURIUM, Strain/Indicator: TA1535, Metabolic Activation: NONE, Method: STANDARD PLATE): active; positive

SMILES: ClCc1c2ccccc2c2ccc3cccc4ccc1c2c43
- mutagenic call [14]: inactive; negative
- mutagenic call [13]: inactive; negative

SMILES: CCCCCCC[CH2][Sn]([Cl])([Cl])[CH2]CCCCCCC
- mutagenic call (Test System: CHINESE HAMSTER V-79, Strain/Indicator: V-79/8-AZAGUANINE, Metabolic Activation: NONE): active; positive
- mutagenic call (Test System: CHINESE HAMSTER V-79, Strain/Indicator: V-79/8-AZAGUANINE, Metabolic Activation: RAT HEPATOCYTES): inactive; negative

SMILES: COc1c(O)c2c(c3cc(C(=O)N4CCc5c4c(O)c(OC)c4[nH]c(C(=O)N6C[C@H]7C[C@@]78C6=CC(=O)c6[nH]cc(C)c68)cc54)[nH]c13)CCN2C(N)=O
- mutagenic call [14]: inactive; negative
- mutagenic call [15]: inactive; negative
- mutagenic call [13]: inactive; negative
- mutagenic call (Test System: CHINESE HAMSTER V-79, Strain/Indicator: V-79/6-THIOGUANINE, Metabolic Activation: NONE): active; positive

SMILES: Cn1c2ccccc2c(=O)c2c(O)cc3c(c21)CC(C1(C)CO1)O3 (stereo not drawn)
- mutagenic call [14]: active; positive
- mutagenic call (Test System: AMES SALMONELLA TYPHIMURIUM, Strain/Indicator: TA98, Metabolic Activation: RAT, LIVER, S-9, 3-METHYLCHOLANTHRENE, Method: STANDARD PLATE): active; positive
- mutagenic call (Test System: AMES SALMONELLA TYPHIMURIUM, Strain/Indicator: TA98, Metabolic Activation: RAT, LIVER, S-9, PHENOBARBITAL, Method: STANDARD PLATE): active; positive
- mutagenic call (Test System: AMES SALMONELLA TYPHIMURIUM, Strain/Indicator: TA98, Metabolic Activation: RAT, LIVER, S-9, Method: STANDARD PLATE): active; positive
- mutagenic call [13]: active; positive
- mutagenic call (Test System: AMES SALMONELLA TYPHIMURIUM, Strain/Indicator: TA100, Metabolic Activation: RAT, LIVER, S-9, 3-METHYLCHOLANTHRENE, Method: STANDARD PLATE): active; positive
- mutagenic call (Test System: AMES SALMONELLA TYPHIMURIUM, Strain/Indicator: TA100, Metabolic Activation: RAT, LIVER, S-9, PHENOBARBITAL, Method: STANDARD PLATE): active; positive
- mutagenic call (Test System: AMES SALMONELLA TYPHIMURIUM, Strain/Indicator: TA100, Metabolic Activation: RAT, LIVER, S-9, Method: STANDARD PLATE): active; positive

SMILES: O=CNc1ccccc1
- mutagenic call [1]: inactive; negative
- mutagenic call [2]: inactive; negative
- mutagenic call [3]: inactive; negative
- mutagenic call [4]: inactive; negative
- mutagenic call [5]: inactive; negative
- mutagenic call [6]: inactive; negative
- mutagenic call [7]: inactive; negative
- mutagenic call [8]: inactive; negative
- mutagenic call [9]: inactive; negative
- mutagenic call [10]: inactive; negative
- mutagenic call [11]: inactive; negative
- mutagenic call [12]: inactive; negative

SMILES: Cn1c(N)nc2c3ccc(=O)[nH]c3ccc21
- mutagenic call [5]: active; positive
- mutagenic call [14]: active; positive
- mutagenic call (Test System: AMES SALMONELLA TYPHIMURIUM, Strain/Indicator: TA98, Metabolic Activation: RAT, LIVER, S-9, AROCLOR 1254 (0.5-3 MG/ML), Method: PREINCUBATION): active; positive
- mutagenic call [15]: active; positive

SMILES: c1ccc2c(c1)ccc1cccnc12
- mutagenic call (Test System: AMES SALMONELLA TYPHIMURIUM, Strain/Indicator: TA100, Metabolic Activation: RAT, LIVER, S-9, AROCLOR 1254, Method: STANDARD PLATE): inactive; negative
- mutagenic call (Test System: AMES SALMONELLA TYPHIMURIUM, Strain/Indicator: TA100, Metabolic Activation: RAT, LIVER, S-9, PCB, Method: STANDARD PLATE): active; positive
- mutagenic call (Test System: AMES SALMONELLA TYPHIMURIUM, Strain/Indicator: TA100, Metabolic Activation: RAT, LIVER, S-9, PHENOBARBITAL AND 5,6-BENZOFLAVONE, Method: PREINCUBATION): inactive; negative

SMILES: Cc1ccc2nc(N)[nH]c2c1
- mutagenic call (Test System: AMES SALMONELLA TYPHIMURIUM, Strain/Indicator: TA98, Metabolic Activation: RAT, LIVER, S-9, AROCLOR 1254, Method: PREINCUBATION): active; positive
- mutagenic call (Test System: AMES SALMONELLA TYPHIMURIUM, Strain/Indicator: TA100, Metabolic Activation: RAT, LIVER, S-9, AROCLOR 1254, Method: PREINCUBATION): inactive; negative
